Reference: ChEMBL document CHEMBL1201862, “PubChem BioAssay data set” (2004)
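All cell lines were grown in 96-well plates and treated with compound for 48 hours. GI50 = concentration required for 50% inhibition of growth.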 Active and inactive are the calls of the source. Cut-off read from the data, not from the text of the source: active = GI50 up to about 1.1 µM and inactive = higher.

Key:
Experiment in all cases: DTP human tumour cell line panel, 48 h
A498 = system: A498
A549 = system: A549
CAKI-1 = system: CAKI-1
HCC 2998 = system: HCC 2998
HCT-15 = system: HCT-15
HOP-62 = system: HOP-62
IGROV-1 = system: IGROV-1
K562 = system: K562
LOX IMVI = system: LOX IMVI
MDA-MB-231 = system: MDA-MB-231
Malme-3M = system: Malme-3M
NCI-H460 = system: NCI-H460
NCI-H522 = system: NCI-H522
OVCAR-3 = system: OVCAR-3
RPMI-8226 = system: RPMI-8226
SF-268 = system: SF-268
SK-OV-3 = system: SK-OV-3
SN12C = system: SN12C
SR = system: SR
U-251 = system: U-251

Structure (SMILES) | GI50 (A498) | GI50 (A549) | GI50 (CAKI-1) | GI50 (HCC 2998) | GI50 (HCT-15) [µM] | GI50 (HOP-62) | GI50 (IGROV-1) | GI50 (K562) | GI50 (LOX IMVI) | GI50 (MDA-MB-231) | GI50 (Malme-3M) | GI50 (NCI-H460) | GI50 (NCI-H522) | GI50 (OVCAR-3) | GI50 (RPMI-8226) | GI50 (SF-268) | GI50 (SK-OV-3) | GI50 (SN12C) | GI50 (SR) | GI50 (U-251)
[O-][n+]1onc2c3nn(-c4ccccc4)nc3ccc21 | > 100 µM (inactive) | > 100 µM (inactive) | > 100 µM (inactive) | 15.6 µM (inactive) | 49.5 | 77.1 µM (inactive) | > 100 µM (inactive) | > 100 µM (inactive) | 13.2 µM (inactive) | > 100 µM (inactive) | > 100 µM (inactive) | > 100 µM (inactive) | > 96.2 µM (inactive) | 22.2 µM (inactive) | 6.32 µM (inactive) | > 86.7 µM (inactive) | > 100 µM (inactive) | > 100 µM (inactive) | 4.43 µM (inactive) | > 100 µM (inactive)
C=C1c2nc3ccccc3n2C=C(c2ccc(C)cc2)N1c1ccc(C)cc1 | > 100 µM (inactive) | 52.6 µM (inactive) | > 100 µM (inactive) | 22.5 µM (inactive) | 23.8 | > 100 µM (inactive) | > 67.1 µM (inactive) | 19.9 µM (inactive) | 34.8 µM (inactive) | > 83.4 µM (inactive) | > 63.2 µM (inactive) | 42.3 µM (inactive) | 17.2 µM (inactive) | 64.7 µM (inactive) | 21.4 µM (inactive) | > 100 µM (inactive) | > 100 µM (inactive) | > 100 µM (inactive) | 11.5 µM (inactive) | 86.3 µM (inactive)
Nc1cccc2cc(Cl)cnc12 | > 100 µM (inactive) | > 100 µM (inactive) | > 100 µM (inactive) | > 100 µM (inactive) | > 100 | > 100 µM (inactive) | > 100 µM (inactive) | > 100 µM (inactive) | > 100 µM (inactive) | > 100 µM (inactive) | > 100 µM (inactive) | > 100 µM (inactive) | > 100 µM (inactive) | 96.8 µM (inactive) | > 100 µM (inactive) | > 100 µM (inactive) | > 100 µM (inactive) | > 100 µM (inactive) | > 100 µM (inactive) | > 100 µM (inactive)
C=C(c1ccc2[nH]c(NC(=O)OC)nc2c1)c1cccs1 | 0.425 µM (active) | 0.16 µM (active) | < 0.046 µM (active) | 0.217 µM (active) | < 0.0349 | 0.206 µM (active) | 0.371 µM (active) | < 0.0456 µM (active) | 0.0986 µM (active) | 0.365 µM (active) | 0.0855 µM (active) | 0.118 µM (active) | 0.0813 µM (active) | 0.0379 µM (active) | 0.316 µM (active) | 2.02 µM (inactive) | 0.135 µM (active) | 0.839 µM (active) | < 0.01 µM (active) | 0.0791 µM (active)
COc1cc2c(cc1OC)C(=O)/C(=C/c1ccccc1)CC2 | 26.1 µM (inactive) | 27.7 µM (inactive) | 17.1 µM (inactive) | 22.6 µM (inactive) | 20.8 | > 100 µM (inactive) | 38.9 µM (inactive) | 34.4 µM (inactive) | 32.7 µM (inactive) | > 100 µM (inactive) | > 100 µM (inactive) | 26.9 µM (inactive) | 52.6 µM (inactive) | 37.6 µM (inactive) | 23.4 µM (inactive) | 46.7 µM (inactive) | 25.5 µM (inactive) | 43.7 µM (inactive) | 13.5 µM (inactive) | 53.2 µM (inactive)
